From patent US9499553B2 (CHUGAI SEIYAKU KABUSHIKI KAISHA, priority 2013, dated 2016)

The molecules below were run against T1, human NaPi-IIb (Homo sapiens, UniProt O95436) (assay: Inhibitory effect on 33PO4 uptake into human NaPi-IIb-expressing CHO cells). Settings: read-out: IC50.
T1 construct: expressed in transfected cells
T1 sequence (O95436 1-690): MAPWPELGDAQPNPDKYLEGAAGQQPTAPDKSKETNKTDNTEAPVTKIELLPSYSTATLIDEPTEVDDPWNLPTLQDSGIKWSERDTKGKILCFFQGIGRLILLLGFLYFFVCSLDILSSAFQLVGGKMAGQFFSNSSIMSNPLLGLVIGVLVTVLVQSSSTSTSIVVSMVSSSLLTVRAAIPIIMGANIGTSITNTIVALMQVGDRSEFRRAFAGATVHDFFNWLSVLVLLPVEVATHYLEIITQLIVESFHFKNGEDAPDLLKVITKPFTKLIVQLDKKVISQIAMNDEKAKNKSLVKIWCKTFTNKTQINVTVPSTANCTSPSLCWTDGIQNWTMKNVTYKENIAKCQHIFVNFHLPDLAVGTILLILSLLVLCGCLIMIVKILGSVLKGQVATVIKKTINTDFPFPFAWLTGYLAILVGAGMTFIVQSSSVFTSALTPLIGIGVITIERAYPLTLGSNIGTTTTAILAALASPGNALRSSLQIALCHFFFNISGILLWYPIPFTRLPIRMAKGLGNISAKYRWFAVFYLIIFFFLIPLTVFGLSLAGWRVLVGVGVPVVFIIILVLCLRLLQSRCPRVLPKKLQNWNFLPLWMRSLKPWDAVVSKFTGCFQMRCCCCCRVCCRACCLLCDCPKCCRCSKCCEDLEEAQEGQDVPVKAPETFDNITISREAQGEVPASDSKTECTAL
Assay type: cell-based
Description: Test Example 2: Inhibitory Effect on PO4 Uptake into Human NaPi-IIb-Expressing Cell CHO cells were transfected with human NaPi-IIb expression plasmids, and a stably human NaPi-IIb-expressing cell line was obtained using G418. The human NaPi-IIb-expressing cells were inoculated to a 96-well plate and incubated overnight in a CO2 incubator. […] After a given time, a 1/20 volume of buffer A containing ^33PO4 was added thereto and reacted at room temperature. After washing with ice-cold buffer A, a liquid scintillator was added to each reaction mixture, and the amount of ^33PO4 uptake was measured using TopCount.

Row | SMILES | IC50
1 | C[C@]12CCCN1N(Cc1cccc(F)c1F)C(=O)C(C(=O)Nc1ccc(C(F)(F)F)cc1-c1cnc(N3CC4(COC4)C3)c(C#N)c1)=C2O [Example 111, (4aR)—N-[2-[5-Cyano-6-(2-oxa-6-azaspiro[3.3]heptan-6-yl)pyridin-3-yl]-4-(trifluoromethyl)phenyl]-1-[(2,3-difluorophenyl)methyl]-4-hydroxy-4a-methyl-2-oxo-6,7-dihydro-5H-pyrrolo[1,2-b]pyridazine-3-carboxamide] | 20 µM
2 | CSc1cc(-c2cc(C(F)(F)F)ccc2NC(=O)C2=C(O)[C@@]3(C)CCCN3N(Cc3cccc(F)c3F)C2=O)cnc1C#N [Example 113, (4aR)—N-[2-(6-Cyano-5-methylsulfanylpyridin-3-yl)-4-(trifluoromethyl)phenyl]-1-[(2,3-difluorophenyl)methyl]-4-hydroxy-4a-methyl-2-oxo-6,7-dihydro-5H-pyrrolo[1,2-b]pyridazine-3-carboxamide] | 15.5 µM
3 | COc1cc(-c2cc(C(F)(F)F)ccc2NC(=O)C2=C(O)[C@@]3(C)CCCN3N(Cc3cccc(F)c3F)C2=O)cnc1C#N [Example 114, (4aR)—N-[2-(6-Cyano-5-methoxypyridin-3-yl)-4-(trifluoromethyl)phenyl]-1-[(2,3-difluorophenyl)methyl]-4-hydroxy-4a-methyl-2-oxo-6,7-dihydro-5H-pyrrolo[1,2-b]pyridazine-3-carboxamide] | 7.9 µM
4 | CSc1ccc(-c2cc(C(F)(F)F)ccc2NC(=O)C2=C(O)[C@@]3(C)CCCN3N(Cc3ccc(CCCCCCC(=O)O)c(F)c3F)C2=O)cn1 [Example 115, 7-[4-[[(4aR)-4-Hydroxy-4a-methyl-3-[[2-(6-methylsulfanylpyridin-3-v1)-4-(trifluoromethyl)phenyl]carbamoyl]-2-oxo-6,7-dihydro-5H-pyrrolo[1,2-b]pyridazin-1-yl]methyl]-2,3-difluorophenyl]heptanoate] | 6.9 µM
5 | C[C@]12CCCN1N(Cc1ccc(CCCCCCC(=O)O)c(F)c1F)C(=O)C(C(=O)Nc1ccc(Cl)cc1-c1ccc(C(F)(F)F)nc1)=C2O [Example 116, 7-[4-[[(4aR)-3-[[4-Chloro-2-[6-(trifluoromethyl)pyridin-3-yl]phenyl]carbamoyl]-4-hydroxy-4a-methyl-2-oxo-6,7-dihydro-5H-pyrrolo[1,2-b]pyridazin-1-yl]methyl]-2,3-difluorophenyl]heptanoate] | 8.1 µM
6 | CSc1ccc(-c2cc(C(F)(F)F)ccc2NC(=O)C2=C(O)[C@@]3(C)CCCN3N(Cc3ccc(C#CCCCCC(=O)O)c(F)c3F)C2=O)cn1 [Example 117, 7-[4-[[(4aR)-4-Hydroxy-4a-methyl-3-[[2-(6-methylsulfanylpyridin-3-yl)-4-(trifluoromethyl)phenyl]carbamoyl]-2-oxo-6,7-dihydro-5H-pyrrolo[1,2-b]pyridazin-1-yl]methyl]-2,3-difluorophenyl]hept-6-ynoate] | 9.5 µM
7 | CSc1ccc(-c2cc(C(F)(F)F)ccc2NC(=O)C2=C(O)[C@@]3(C)CCCN3N(Cc3ccc(OCCCCOC[C@H](O)CO)c(F)c3F)C2=O)cn1 [Example 120, (4aR)-1-[[4-[4-[(2R)-2,3-Dihydroxypropoxy]butoxy]-2,3-difluorophenyl]methyl]-4-hydroxy-4a-methyl-N-[2-(6-methylsulfanylpyridin-3-v1)-4-(trifluoromethyl)phenyl]-2-oxo-6,7-dihydro-5H-pyrrolo[1,2-b]pyridazine-3-carboxamide] | 20.5 µM
8 | C[C@]12CCCN1N(Cc1ccc(OCCCCOC[C@H](O)CO)c(F)c1F)C(=O)C(C(=O)Nc1ccc(Cl)cc1-c1ccc(C(F)(F)F)nc1)=C2O [Example 121, (4aR)—N-[4-Chloro-2-[6-(trifluoromethyl)pyridin-3-yl]phenyl]-1-[[4-[4-[(2R)-2,3-dihydroxypropoxy]butoxy]-2,3-difluorophenyl]methyl]-4-hydroxy-4a-methyl-2-oxo-6,7-dihydro-5H-pyrrolo[1,2-b]pyridazine-3-carboxamide] | 16 µM
9 | COc1cccc(-c2cc(C(F)(F)F)ccc2NC(=O)C2=C(O)[C@@]3(C)CCCN3N(Cc3ccc(C#CCOCCCCO)c(F)c3F)C2=O)c1OC [Example 123, (4aR)-1-[[2,3-Difluoro-4-[3-(4-hydroxybutoxy)prop-1-ynil]phenyl]methyl]-N-[2-(2,3-dimethoxyphenyl)-4-(trifluoromethyl)phenyl]-4-hydroxy-4a-methyl-2-oxo-6,7-dihydro-5H-pyrrolo[1,2-b]pyridazine-3-carboxamide] | 14.8 µM
10 | C[C@]12CCCN1N(Cc1c(F)cc(C#CCCCCCOC[C@H](O)[C@@H](O)CO)cc1F)C(=O)C(C(=O)Nc1ccc(C(F)(F)F)cc1-c1ccc(C(F)(F)F)nc1)=C2O [Example 124, (4aR)-1-[[2,6-Difluoro-4-[7-[(2S,3S)-2,3,4-trihydroxybutoxy]hept-1-ynil]phenyl]methyl]-4-hydroxy-4a-methyl-2-oxo-N-[4-(trifluoromethyl)-2-[6-(trifluoromethyl)pyridin-3-yl]phenyl]-6,7-dihydro-5H-pyrrolo[1,2-b]pyridazine-3-carboxamide] | 2.5 µM
11 | COc1cccc(-c2cc(C(F)(F)F)ccc2NC(=O)C2=C(O)[C@@]3(C)CCCN3N(Cc3ccc(C#CCOCCCO)c(F)c3F)C2=O)c1OC [Example 127] | 17.6 µM
12 | C[C@]12CCCN1N(Cc1c(F)cc(C#CC3(O)CCCC3)cc1F)C(=O)C(C(=O)Nc1ccc(C(F)(F)F)cc1-c1ccc(C(F)(F)F)nc1)=C2O [Example 130] | 8.9 µM
13 | C[C@]12CCCN1N(Cc1ccc(C#CCN3CCCC3=O)c(F)c1F)C(=O)C(C(=O)Nc1ccc(Br)c(F)c1)=C2O [Example 131] | 15.3 µM
14 | C[C@]12CCCN1N(Cc1ccc(C#CCN3CCOCC3=O)c(F)c1F)C(=O)C(C(=O)Nc1ccc(Br)c(F)c1)=C2O [Example 133] | 13.1 µM
15 | COc1cccc(-c2cc(C(F)(F)F)ccc2NC(=O)C2=C(O)[C@@]3(C)CCCN3N(Cc3ccc(C#CCOCCOCCOCCO)c(F)c3F)C2=O)c1OC [Example 136] | 17.6 µM

More lines, in order of falling IC50, values ahead:

Row | IC50 | SMILES
16 | 19.7 µM | COc1cccc(-c2cc(C(F)(F)F)ccc2NC(=O)C2=C(O)[C@@]3(C)CCCN3N(Cc3ccc(C#CCCO)c(F)c3F)C2=O)c1OC [Example 134]
17 | 19.7 µM | COc1cccc(-c2cc(C(F)(F)F)ccc2NC(=O)C2=C(O)[C@@]3(C)CCCN3N(Cc3ccc(C#CCOCCO)c(F)c3F)C2=O)c1OC [Example 137]
18 | 12.3 µM | COc1cccc(-c2cc(C(F)(F)F)ccc2NC(=O)C2=C(O)[C@@]3(C)CCCN3N(Cc3ccc(C#CCCCCO)c(F)c3F)C2=O)c1OC [Example 135]
19 | 12 µM | C[C@]12CCCN1N(Cc1ccc(C#CCOCCCCO)c(F)c1F)C(=O)C(C(=O)Nc1ccc(C(F)(F)F)cc1-c1ccc(C(F)(F)F)nc1)=C2O [Example 128]
20 | 9.2 µM | C[C@]12CCCN1N(Cc1ccc(C#CCCCCC(=O)O)c(F)c1F)C(=O)C(C(=O)Nc1ccc(C(F)(F)F)cc1-c1cncc(C(F)(F)F)c1)=C2O [Example 119, 7-[4-[[(4aR)-4-Hydroxy-4a-methyl-2-oxo-3-[[4-(trifluoromethyl)-2-[5-(trifluoromethyl)pyridin-3-yl]phenyl]carbamoyl]-6,7-dihydro-5H-pyrrolo[1,2-b]pyridazin-1-yl]methyl]-2,3-difluorophenyl]hept-6-ynoate]
21 | 9.1 µM | CSc1ncc(-c2cc(C(F)(F)F)ccc2NC(=O)C2=C(O)[C@@]3(C)CCCN3N(Cc3ccc(C#CCCCCC(=O)O)c(F)c3F)C2=O)cn1 [Example 118, 7-[4-[[(4aR)-4-Hydroxy-4a-methyl-3-[[2-(2-methylsulfanylpyrimidin-5-yl)-4-(trifluoromethyl)phenyl]carbamoyl]-2-oxo-6,7-dihydro-5H-pyrrolo[1,2-b]pyridazin-1-yl]methyl]-2,3-difluorophenyl]hept-6-ynoate]
22 | 8.6 µM | C[C@]12CCCN1N(Cc1cccc(F)c1F)C(=O)C(C(=O)Nc1ccc(Br)cc1-c1ccc(Cl)nc1)=C2O [Example 122, (4aR)—N-[4-Bromo-2-(6-chloropyridin-3-yl)phenyl]-1-[(2,3-difluorophenyl)methyl]-4-hydroxy-4a-methyl-2-oxo-6,7-dihydro-5H-pyrrolo[1,2-b]pyridazine-3-carboxamide]
23 | 5.5 µM | C#Cc1ccc(CN2C(=O)C(C(=O)Nc3ccc(C(F)(F)F)cc3-c3cc(C(F)(F)F)ncn3)=C(O)[C@@]3(C)CCCN23)c(F)c1F [Example 126, (4aR)-1-[(4-Ethynyl-2,3-difluorophenyl)methyl]-4-hydroxy-4a-methyl-2-oxo-N-[4-(trifluoromethyl)-2-[6-(trifluoromethyl)pyrimidin-4-yl]phenyl]-6,7-dihydro-5H-pyrrolo[1,2-b]pyridazine-3-carboxamide]
24 | 5 µM | C[C@]12CCCN1N(Cc1c(F)cc(C#CCN3CCOCC3)cc1F)C(=O)C(C(=O)Nc1ccc(C(F)(F)F)cc1-c1ccc(C(F)(F)F)nc1)=C2O [Example 132]
25 | 1.3 µM | C[C@]12CCCN1N(Cc1c(F)cc(CCCCCCCOC[C@H](O)[C@@H](O)CO)cc1F)C(=O)C(C(=O)Nc1ccc(C(F)(F)F)cc1-c1ccc(C(F)(F)F)nc1)=C2O [Example 125]
